Holding throughout (format): functional
Conditions in all cases: read-out: IZ

Experiment [1] relates to Penicillium digitatum. Put plainly: Antimicrobial activity against Penicillium digitatum at 24 ug.
For experiment [2], the system named is Saccharomyces cerevisiae. Put plainly: Antimicrobial activity against Saccharomyces cerevisiae at 24 ug.
In experiment [3] the test system is Bacillus subtilis. As to the kind of experiment: Antimicrobial activity against Bacillus subtilis ATCC 6633 at 0.6 ug.
Experiment [4] deals with Escherichia coli. Put plainly: Antimicrobial activity against Escherichia coli B ATCC 11303 at 6 ug.
Experiment [5] concerns Saccharomyces cerevisiae. Put plainly: Antimicrobial activity against Saccharomyces cerevisiae at 400 ug.
Experiment [6] concerns Escherichia coli. As to the kind of experiment: Antimicrobial activity against Escherichia coli B ATCC 11303 at 400 ug.
Experiment [7] has as its system Penicillium digitatum. Put plainly: Antimicrobial activity against Penicillium digitatum at 40 ug.
In experiment [8] the test system is Bacillus subtilis. Put plainly: Antimicrobial activity against Bacillus subtilis ATCC 6633 at 400 ug.

Counter-ions that a name gives are not always drawn.

In ChEMBL document CHEMBL1151646, “Methyl -Orcinolcarboxylate and Depsides from Parmelia furfuracea” (1985) one finds zone of inhibition data, which are given here for three molecules.

Turning to `CCCCC[C@@H](O)[C@H]1C(=O)O[C@H](C)[C@@H](O)/C=C/C=C/C=C/C=C/C=C(\C)[C@@H](O)C[C@H](O)C[C@H](O)C[C@H](O)C[C@H](O)C[C@H](O)C[C@@H]1O` [FILIPIN], the figures for the zone of inhibition at 24 µg/disc with Penicillium digitatum [1] and with Saccharomyces cerevisiae [2] were 29 mm and 21 mm, respectively.
With `CN[C@@H]1[C@H](O[C@H]2[C@H](O[C@H]3[C@H](O)[C@@H](O)[C@H](N=C(N)N)[C@@H](O)[C@@H]3N=C(N)N)O[C@@H](C)[C@]2(O)C=O)O[C@@H](CO)[C@H](O)[C@H]1O` [STREPTOMYCIN SULFATE], in the experiment with Bacillus subtilis [3], the zone of inhibition at 0.6 µg/disc worked out at 16 mm. Further, the zone of inhibition at 6 µg/disc in the experiment on Escherichia coli [4] came to 17 mm.
Regarding `COC(=O)c1c(C)cc(O)c(C)c1O` [ATRARIC ACID], the zone of inhibition at 400 µg/disc in the experiment on Saccharomyces cerevisiae [5] was determined as 18 mm; in the experiment with Escherichia coli [6], 15 mm; in the experiment on Bacillus subtilis [8], 17 mm. Besides, in the experiment with Penicillium digitatum [7], the zone of inhibition at 40 µg/disc amounted to 29 mm.
